# US8603997B2, “siRNA that inhibits WT1 gene expression and uses thereof” (Haruo Sugiyama, priority 2004, dated 2013)
# Key:
# [1] = tested on: HT-1080 fibrosarcoma cells (WT1-expressing); assay: Cell count 72 hours after introducing vector-based WT1 siRNAs, HT-1080; conditions: HT-1080, cell count 72 hours after introduction, versus mock vector
# Experimental: (§1) Treatments with the siRNA vectors and mock vector were carried out in the following steps. Cells were plated onto a 6-well plate, and on the next day, the WT1-siRNA expression vectors and mock vector were transiently expressed by lipofection using FuGENE 6 (Roche). Three days later, the cells were trypsinized and the number of cells was counted. The WT1 protein expression level in these cells was analyzed by Western blotting.
# To analyze the effect of vector-based WT1 siRNAs on cell growth, the number of cells was counted 72 hours after introducing the six types of vector-based WT1 siRNAs, loop1-WRI-4, WRI-4, WRI-4m, WRI-16m, WRI-17m, and WRI-18m, and a mixture of WRI-4m, WRI-16m, WRI-17m, and WRI-18m, respectively. […] Among the WT1 siRNAs, WRI-4m suppressed growth by 90% or more. In contrast, in PC-14 lung cancer cells (a non-WT1-expressing cell line), cell growth was not suppressed by any of the six vector-based WT1 siRNA treatments (FIG. 6).
# [2] = tested on: AZ-521 gastric cancer cells; assay: Cell count 72 hours after vector introduction, AZ-521; format: cell-based; conditions: AZ-521, cell count 72 hours later
# Experimental: as §1
# (§2) Furthermore, to investigate whether two types of vector-based WT1 siRNAs (WRI-4m and WRI-16m) can suppress the growth of various WT1-expressing cancer cells, these vectors were introduced into three WT1-expressing cell lines: AZ-521 gastric cancer cells, SW620 colon cancer cells, and HL-60 leukemia cells, and the number of cells were counted 72 hours later.
# SW620 colon cancer cells = assay: Cell count 72 hours after vector introduction, SW620; format: cell-based; conditions: SW620, cell count 72 hours later
# Experimental: as §1, §2
# HL-60 leukemia cells = assay: Cell count 72 hours after vector introduction, HL-60; format: cell-based; conditions: HL-60, cell count 72 hours later
# Experimental: as §1, §2
# HT-1080 cells [3] = assay: Apoptosis by Annexin V-FITC/PI flow cytometry, HT-1080; format: cell-based
# Experimental: (§3) To elucidate the mechanism of cancer cell growth suppression by vector-based WT1 siRNAs, induction of apoptosis in cells subjected to a vector-based WT1 siRNA treatment was analyzed. Two WT1-expressing cell lines HT-1080 and AZ-521, and a non-WT1-expressing cell line PC-14 were subjected to the WRI-4m treatment, double-stained with AnnexinV-FITC and PI, and then analyzed by flow cytometry.
# (§4) Apoptosis analysis by flow cytometry was carried out by the following steps. First, to detect apoptosed cells, 1.0×10^5 cells were washed with PBS, and then the cells were stained by reaction with Annexin V-FITC and PI at room temperature for 15 minutes, using the MEBCYTO Apoptosis kit (Medical and Biological Laboratories Co., Ltd, Nagoya, Japan). Upon analysis of these cells using a FACScan flowcytometer (Becton Dickinson, San Jose, Calif.), Annexin V-FITC-positive cells were defined as apoptosed cells.
# AZ-521 cells = assay: Apoptosis by Annexin V-FITC/PI flow cytometry, AZ-521; format: cell-based
# Experimental: as §3, §4
# PC-14 [4] = assay: Apoptosis by Annexin V-FITC/PI flow cytometry, PC-14; format: cell-based; conditions: PC-14 (non-WT1-expressing)
# Experimental: as §3, §4
# HT-1080 cells [5] = assay: Mitochondrial membrane potential by MitoLight staining and flow cytometry, HT-1080; format: cell-based; conditions: HT-1080, 72 hours, compared to mock vector treatment
# Experimental: (§5) To elucidate whether the vector-based WT1 siRNA-induced apoptosis takes place through a mitochondria-mediated pathway, the WT1-expressing cell line HT-1080 cells and the non-WT1-expressing cell line PC14 cells were both treated with WRI-4m and a mock vector respectively. 72 hours later, the state of mitochondrial membrane potential was analyzed by MitoLight staining followed by flow cytometry.
# (§6) The change in mitochondrial membrane potential (ΔΨm) due to apoptosis induction was analyzed using the MitoLight apoptosis detection kit (Chemicon). Cells after apoptosis induction were incubated at 37° C. in a buffer containing MitoLight (a mitochondria staining dye) for 15 minutes, and then analyzed on a FACScan FL2 channel.
# PC-14 [6] = assay: Mitochondrial membrane potential by MitoLight staining and flow cytometry, PC-14; format: cell-based; conditions: PC-14 (non-WT1-expressing), 72 hours
# Experimental: as §5, §6
# cancer cells [7] = assay: Release of cytochrome c from mitochondria into cytoplasm after combined treatment (Western blot); format: cell-based
# Experimental: Western blot analysis was carried out by the following steps. Cells transiently expressing the siRNA expression vectors and mock vector were dissolved in an SDS sample buffer, and proteins were separated by SDS-PAGE and then blotted onto a PVDF membrane. Color was developed using a BCIP-NBT kit with the anti-WT1 antibody C-19 (Santa Cruz Biotechnology), an anti-cytochrome C antibody (Pharmingen), or an anti-GAPDH antibody (Chemicon) as a primary antibody, and an ALP-conjugated anti-rabbit or anti-mouse antibody (Santa Cruz Biotechnology) as a second antibody.
# Combined use of an siRNA vector with a chemotherapeutic agent or a death ligand, was carried out by the following steps. […]
# To reveal that enhancement of cell growth suppression due to combined use of vector-based WT1-siRNA with an anticancer agent is caused by enhancing the induction of mitochondria-mediated apoptosis, the release of cytochrome c from mitochondria into cytoplasm which takes place after combined treatment of vector-based WT1-siRNA with doxorubicin or etoposide was analyzed.
# The release of cytochrome c from mitochondria into cytoplasm was analyzed by the following steps. […]
# cancer cells [8] = assay: Mitochondrial membrane potential after combined treatment (flow cytometry); format: cell-based; conditions: compared to anticancer agent alone
# Experimental: as §6
# Combined use of an siRNA vector with a chemotherapeutic agent or a death ligand, was carried out by the following steps. Cells were plated onto a 6-well plate, and on the next day, the vector-based WT1 siRNA and mock vector were transiently expressed by lipofection using FuGENE 6 (Roche), and 48 hours later, the cells were treated for another 24 hours with 25 μM etoposide (WAKO), 0.2 μM doxorubicin (Sigma), or […] of TNF-related apoptosis-inducing ligand (TRAIL) (Peprotech).
# Mitochondrial membrane potential after combined treatment using vector-based WT1 siRNA with doxorubicin, etoposide, and TRAIL, respectively, was evaluated by flow cytometry.
substance,measurement,setting,value
"WRI-4m: siRNA vector, loop 2, target positions 1150-1179 (SEQ ID NO: 9), mutated sense strand SEQ ID NO: 11 (sense AGCTCCAGCTTAGTGAAGTGGGTAGGAGGG)",growth suppression,[1],≥ 90%
same,growth compared to mock vector treatment,[2],significantly suppressed
same,growth compared to mock vector treatment,SW620 colon cancer cells,significantly suppressed
same,growth compared to mock vector treatment,HL-60 leukemia cells,significantly suppressed
same,apoptosis induced (Annexin V-FITC-positive cells),HT-1080 cells [3],71.1%
same,apoptosis induced (Annexin V-FITC-positive cells),AZ-521 cells,40.6%
same,apoptosis induction,PC-14 [4],did not induce apoptosis
same,loss of the mitochondrial membrane potential,HT-1080 cells [5],significantly induced
same,loss of the mitochondrial membrane potential,PC-14 [6],did not induce
same,release of cytochrome c into cytoplasm,"cancer cells [7]; combined treatment with doxorubicin (0.2 μM, 24 hours)",enhanced
same,release of cytochrome c into cytoplasm,"cancer cells [7]; combined treatment with etoposide (25 μM, 24 hours)",enhanced
same,loss of mitochondrial membrane potential,cancer cells [8]; combined treatment with doxorubicin,significantly enhanced
same,loss of mitochondrial membrane potential,cancer cells [8]; combined treatment with etoposide,significantly enhanced
